Several values for one entry are separate records, joined by “and”; a condition that tells them apart may be missing. Equal values may be shown once.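 In this assay, cells in 96-well plates receive the compound at five concentrations for 48 hours. Endpoints are linearly interpolated between the surrounding concentrations. Here, GI50 denotes the concentration required for 50% inhibition of growth. TGI marks complete inhibition of growth.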
How the values were obtained:
Test in all cases: NCI tumour cell line growth inhibition, 48 h
[1] = test system: UO-31 renal
[2] = test system: SF-539 CNS
[3] = test system: SF-295 CNS
[4] = test system: SK-OV-3 ovarian
[5] = test system: HCC-2998 colon
[6] = test system: M19-MEL melanoma
[7] = test system: KM20L2 colon
[8] = test system: DMS 114 small cell lung
[9] = test system: LXFL 529 NSCLC
[10] = test system: HOP-18 NSCLC
[11] = test system: SNB-78 CNS
[12] = test system: RXF-631 renal
[13] = test system: XF 498 CNS
[14] = test system: SN12K1 renal
[15] = test system: P388 leukemia
[16] = test system: P388/ADR leukemia

SMILES	TGI [1]	TGI [2]	TGI [3]	TGI [4]	TGI [5]	TGI [6]	TGI [7]	TGI [8]	TGI [9]	TGI [10]	TGI [11]	TGI [12]	TGI [13]	TGI [14]	TGI [15]	TGI [16]	GI50 [5]	GI50 [3]	GI50 [4]
O=C(COc1ccc(Cl)c(Cl)c1)Nc1ccc[n+](Cc2ccc(S(=O)(=O)F)c(Cl)c2)c1	> 100 µM	> 100 µM	> 100 µM	> 100 µM	–	–	–	–	–	–	–	–	–	–	–	–	–	–	–
O=C(CSCC(=O)N/N=C/c1ccc2c(c1)OCO2)N/N=C/c1ccc2c(c1)OCO2	> 100 µM	> 100 µM	> 100 µM	> 100 µM	> 100 µM	–	–	–	–	–	–	–	–	–	–	–	–	–	–
C[C@@H]1C[C@H]2[C@@H]3CCC4=CC(=O)C=C[C@]4(C)[C@@]3(F)[C@@H](O)C[C@]2(C)[C@@]1(O)C(=O)CO	> 100 µM	–	–	> 100 µM	–	> 100 µM	> 100 µM	> 100 µM	> 100 µM	–	–	–	–	–	–	–	–	–	–
C[C@H]1C[C@@H]2[C@H]([C@@H](O)C[C@@]3(C)[C@H]2CC[C@]3(O)C(=O)CO)[C@@]2(C)C=CC(=O)C=C12	> 100 µM	–	–	> 100 µM	> 100 µM	> 100 µM	> 100 µM	> 100 µM	–	> 100 µM	–	–	–	–	–	–	–	–	–
COc1ccccc1/C=C/c1ccnc2ccccc12	–	27.8 µM	27.2 µM	29.7 µM	31.3 µM	–	–	–	–	–	–	–	–	–	–	–	–	–	–
c1ccc2c(CSCc3cccc4ccccc34)cccc2c1	> 100 µM	–	> 100 µM	–	> 100 µM	–	–	–	–	–	–	–	–	–	–	–	–	–	–
C[n+]1cccc(NC(=O)c2ccc(NC(=O)C34CCC(C(=O)Nc5ccc(C(=O)Nc6ccc[n+](C)c6)cc5)(CC3)CC4)cc2)c1	–	> 100 µM	> 100 µM	–	–	> 100 µM	> 100 µM	> 100 µM	> 100 µM	> 100 µM	> 100 µM	–	–	–	–	–	–	–	–
COc1cc2c(c(OC)c1OC)-c1ccc(OC)c(=O)cc1C(NC(=O)COc1ccccc1)CC2 (stereo unspecified)	> 100 µM	< 0.01 µM	0.0874 µM	0.766 µM	1.04 µM	> 100 µM	< 0.01 µM	< 0.01 µM	> 100 µM	> 100 µM	> 100 µM	> 100 µM	65.8 µM	–	–	–	–	–	–
CNC(=O)OCc1nc(SC)n(C)c1CO	> 100 µM	> 100 µM	> 100 µM	> 100 µM	> 100 µM	> 100 µM	> 100 µM	> 100 µM	–	> 100 µM	> 100 µM	–	> 100 µM	> 100 µM	> 100 µM	> 100 µM	–	–	–
CC(=O)Nc1ccc2c(c1)/C(=C\c1ccc([N+](C)(C)C)cc1)c1ccccc1-2	> 100 µM	–	> 100 µM	> 100 µM	> 100 µM	–	–	–	–	–	–	–	–	–	–	–	–	–	–
CN1C=c2c3c(ccc2=C2C=CC4C=C5OCOC5=CC4=C21)OCO3 (stereo unspecified)	2.79 µM and 5 µM	3.18 µM and 4.8 µM	3.2 µM and 21.9 µM	3.96 µM and 25.4 µM	3.24 µM and 16.2 µM	–	–	–	–	–	–	–	–	–	–	–	1.56 µM and 6.55 µM	1.79 µM and 8.51 µM	1.85 µM and 12.7 µM
COc1cc(C(=O)NC2CCc3cc(OC)c(OC)c(OC)c3-c3ccc(OC)c(=O)cc32)cc(OC)c1OC (stereo unspecified)	> 98 µM	0.0689 µM	13 µM	20.9 µM	1.16 µM	> 100 µM	0.326 µM	0.1 µM	44.2 µM	> 100 µM	> 100 µM	–	16 µM	–	–	–	–	–	–
CC(=O)Oc1ccccc1	> 100 µM	> 100 µM	> 100 µM	–	–	> 100 µM	> 100 µM	> 100 µM	> 100 µM	–	–	> 100 µM	–	–	–	–	–	–	–

Reference: PubChem BioAssay (NCI)
